US20060194969A1, “4-Substituted benzimidazoles and their uses as inhibitors of gastric secretion” (priority 2002, published 2006)

Assays:
[1] = test system: pentagastrin-stimulated acid secretion of the perfused rat stomach; assay: Secretion-inhibiting action on the perfused rat stomach (pentagastrin-stimulated acid secretion, intraduodenal administration in vivo); conditions: intraduodenal, dose 1 μmol/kg i.d., anesthetized female CD rat
Text: Testing of the Secretion-Inhibiting Action on the Perfused Rat Stomach
In Table A which follows, the influence of the compounds according to the invention on the pentagastrin-stimulated acid secretion of the perfused rat stomach after intraduodenal administration in vivo is shown.
The abdomen of anesthetized rats (CD rat, female, 200-250 g; 1.5 g/kg i.m. urethane) was opened after tracheotomy by a median upper abdominal incision and a PVC catheter was fixed transorally in the esophagus and another via the pylorus such that the ends of the tubes just projected into the gastric lumen. The catheter leading form the pylorus led outward into the right abdominal wall through a side opening.
After thorough rinsing (about 50-100 ml), warm (37° C.) physiological NaCl solution was continuously passed through the stomach (0.5 ml/min, pH 6.8-6.9; Braun-Unita I). The pH (pH meter 632, glass electrode EA 147; φ=5 mm, Metrohm) and, by titration with a freshly prepared 0.01 N NaOH solution to pH 7 (Dosimat 665 Metrohm), the secreted HCl were determined in the effluent in each case collected at an interval of 15 minutes.
The gastric secretion was stimulated by continuous infusion of 1 μg/kg (=1.65 ml/h) of i.v. pentagastrin (left femoral vein) about 30 min after the end of the operation (i.e. after determination of 2 preliminary fractions). The substances to be tested were administered intraduodenally in a 2.5 ml/kg liquid volume 60 min after the start of the continuous pentagastrin infusion.
The body temperature of the animals was kept at a constant 37.8-38° C. by infrared irradiation and heat pads (automatic, stepless control by means of a rectal temperature sensor).

Compound | inhibition in vivo at 1 µmol/kg [1] | melting point
CCc1cccc(C)c1CNc1cc(C(=O)NCCO)cc2c1nc(C)n2C [Example 35, 4-(2-Ethyl-6-methyl-benzylamino)-6-(2-hydroxyethyl-aminocarbonyl)-1,2-dimethyl-1H-benzimidazole] | > 50% | 200 to 201 °C
CCc1cccc(C)c1CNc1cc(C(N)=O)cc2c1nc(C)n2C [Example 38, 4-(2-Ethyl-6-methyl-benzylamino)-1,2-dimethyl-1H-benzimidazole-6-carboxamide] | > 50% | 240 to 241 °C
CCc1cccc(C)c1CNc1cc(C(=O)N2CCCC2)cc2c1nc(C)n2C [Example 40, 4-(2-Ethyl-6-methyl-benzylamino)-1,2-dimethyl-6-(pyrrolidinocarbonyl)-1H-benzimidazole] | > 50% | 126 °C
CCc1cccc(C)c1CNc1cc(C(=O)N2CCOCC2)cc2c1nc(C)n2C [Example 41, 4-(2-Ethyl-6-methyl-benzylamino)-1,2-dimethyl-6-(morpholinocarbonyl)-1H-benzimidazole] | > 50% | 229 to 231 °C
CCc1cccc(C)c1CNc1cc(C(=O)N(C)C)cc2c1nc(COC)n2C [Example 42, 6-(N,N-Dimethylaminocarbonyl)-4-(2-ethyl-6-methyl-benzylamino)-2-methoxymethyl-1-methyl-1H-benzimidazole] | > 50% | 154 °C
COCc1nc2c(NCc3c(C)cccc3C)cc(C(=O)N(C)C)cc2n1C [Example 43, 6-(N,N-Dimethylaminocarbonyl)-4-(2,6-dimethyl-benzylamino)-2-methoxymethyl-1-methyl-1H-benzimidazole] | > 50% | 156 to 157 °C
CCc1cccc(C)c1CNc1cc(C(=O)N(C)C)cc2c1ncn2C.Cl [Example 45, 6-(N,N-Dimethylaminocarbonyl)-4-(2-ethyl-6-methyl-benzylamino)-1-methyl-1H-benzimidazole Hydrochloride] | > 50% | 183 to 184 °C
Cc1cccc(C)c1CNc1cc(C(=O)N(C)C)cc2c1nc(C)n2C [Example 46, 6-(N,N-Dimethylaminocarbonyl)-4-(2,6-dimethyl-benzylamino)-1,2-dimethyl-1H-benzimidazole] | > 50% | 142 to 143 °C
CCc1cccc(C)c1CNc1cc(C(=O)N(C)C)cc2[nH]c(C)nc12 [Example 49, 6-(N,N-Dimethylaminocarbonyl)-4-(2-ethyl-6-methyl-benzylamino)-2-methyl-1H-benzimidazole] | > 50% | 228 to 230 °C
CNC(=O)c1cc(NCc2c(C)cccc2C)c2nc(C)n(C)c2c1 [Example 55, 4-(2,6-Dimethyl-benzylamino)-1,2-dimethyl-6-(N-methylaminocarbonyl)-1H-benzimidazole] | > 50% | 252 to 253 °C
